According to paper PMC5926067 (Japanese Journal of Cancer Research : Gann, 1999):

Experiments:
Type in all cases: biochemical
stromelysin = stromelysin (Mus musculus, UniProt P28862); test: fluorescence-labeled casein degradation assay, partially purified enzyme
interstitial collagenase = biological target: T1, interstitial collagenase (Homo sapiens, UniProt P03956); test: fluorescence-labeled collagen degradation assay, partially purified enzyme
T1 sequence (P03956 100-469): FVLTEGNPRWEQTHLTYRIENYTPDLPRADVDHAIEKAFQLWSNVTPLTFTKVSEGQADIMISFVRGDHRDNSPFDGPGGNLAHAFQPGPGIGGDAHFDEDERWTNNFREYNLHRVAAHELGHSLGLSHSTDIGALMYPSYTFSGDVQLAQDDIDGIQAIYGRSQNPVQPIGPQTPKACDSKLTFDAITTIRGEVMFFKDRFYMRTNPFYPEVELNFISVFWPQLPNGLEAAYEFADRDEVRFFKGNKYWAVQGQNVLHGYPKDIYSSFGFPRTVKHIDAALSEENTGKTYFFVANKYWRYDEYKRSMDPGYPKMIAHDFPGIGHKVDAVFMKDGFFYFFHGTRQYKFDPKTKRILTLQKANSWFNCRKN

gelatinase A (MMP-2) = biological target: T2, gelatinase A (MMP-2) (Homo sapiens, UniProt P08253); test: fluorescence-labeled gelatin degradation assay, partially purified enzyme
T2 sequence (P08253 110-660): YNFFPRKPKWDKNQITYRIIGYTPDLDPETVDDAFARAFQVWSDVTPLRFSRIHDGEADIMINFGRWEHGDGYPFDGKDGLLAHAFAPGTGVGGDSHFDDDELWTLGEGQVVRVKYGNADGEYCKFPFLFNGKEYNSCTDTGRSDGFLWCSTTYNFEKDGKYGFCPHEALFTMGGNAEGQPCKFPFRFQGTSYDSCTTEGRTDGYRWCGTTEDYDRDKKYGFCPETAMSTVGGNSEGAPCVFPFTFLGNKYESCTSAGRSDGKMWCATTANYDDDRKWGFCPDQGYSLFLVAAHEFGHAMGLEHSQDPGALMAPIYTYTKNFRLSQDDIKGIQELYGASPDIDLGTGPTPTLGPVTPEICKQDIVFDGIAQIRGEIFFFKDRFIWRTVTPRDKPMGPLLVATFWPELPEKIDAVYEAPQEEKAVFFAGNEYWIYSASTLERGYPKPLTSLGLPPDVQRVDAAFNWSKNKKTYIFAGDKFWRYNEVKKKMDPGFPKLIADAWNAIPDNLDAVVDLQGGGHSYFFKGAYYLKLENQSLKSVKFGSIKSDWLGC

gelatinase B (MMP-9) = gelatinase B (MMP-9) (Homo sapiens, UniProt P14780); test: as above
Chain of gelatinase B (MMP-9) (P14780 107-707): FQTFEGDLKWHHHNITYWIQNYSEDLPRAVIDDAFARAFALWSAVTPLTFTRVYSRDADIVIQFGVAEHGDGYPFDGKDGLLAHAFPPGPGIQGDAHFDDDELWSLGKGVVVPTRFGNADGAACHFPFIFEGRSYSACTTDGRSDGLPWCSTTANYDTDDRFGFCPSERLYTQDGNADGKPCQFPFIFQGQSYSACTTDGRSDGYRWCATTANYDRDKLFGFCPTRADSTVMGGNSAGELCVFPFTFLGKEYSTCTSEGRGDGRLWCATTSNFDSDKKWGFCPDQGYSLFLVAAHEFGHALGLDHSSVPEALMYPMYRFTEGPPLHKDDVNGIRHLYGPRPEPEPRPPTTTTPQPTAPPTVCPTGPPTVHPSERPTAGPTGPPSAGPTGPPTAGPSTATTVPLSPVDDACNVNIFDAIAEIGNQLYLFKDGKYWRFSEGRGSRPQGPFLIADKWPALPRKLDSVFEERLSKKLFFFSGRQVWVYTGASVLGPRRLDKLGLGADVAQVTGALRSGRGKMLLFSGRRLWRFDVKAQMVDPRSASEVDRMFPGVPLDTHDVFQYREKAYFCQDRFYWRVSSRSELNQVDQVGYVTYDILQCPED

Chain of stromelysin (P28862 100-477): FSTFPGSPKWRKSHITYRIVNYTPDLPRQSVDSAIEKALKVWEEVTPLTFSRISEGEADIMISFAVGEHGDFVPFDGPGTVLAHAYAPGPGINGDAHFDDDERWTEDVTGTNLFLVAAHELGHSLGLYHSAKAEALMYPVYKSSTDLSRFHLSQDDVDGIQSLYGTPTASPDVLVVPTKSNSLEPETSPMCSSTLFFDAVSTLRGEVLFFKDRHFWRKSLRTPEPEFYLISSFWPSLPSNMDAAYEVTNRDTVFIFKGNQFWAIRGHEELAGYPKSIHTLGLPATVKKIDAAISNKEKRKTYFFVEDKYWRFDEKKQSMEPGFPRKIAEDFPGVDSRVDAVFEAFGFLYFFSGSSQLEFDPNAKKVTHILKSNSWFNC

CON1C(=O)[C@@H](NC(=O)[C@@H](CC(=O)NO)CC(C)C)Cc2ccccc21 [OPB-3206, 3S-[4-(N-hydroxyamino)-2R-isobutylsuccinyl]amino-1-methoxy-3,4-dihydrocarbostyril]
IC50 (stromelysin): 2 µM | IC50 (interstitial collagenase): 0.7 µM | IC50 (gelatinase A (MMP-2)): 5 µM | IC50 (gelatinase B (MMP-9)): 0.5 µM
